ChEMBL document CHEMBL1153314, “[2-(4-Phenyl-4-piperidinyl)ethyl]amine based CCR5 antagonists: derivatizations at the N-terminal of the piperidine ring” (Bioorg Med Chem Lett, 2009)

How the values were obtained:
in vivo [1] = details: rat, 1 mg/kg
in vivo [2] = details: rat, po, 1 mg/kg
in vivo [3] = details: rat, 1 mg/kg; remark: listed apart in the source
in vivo [4] = details: rat, 1 mg/kg; remark: listed apart in the source

| SMILES | Vd (in vivo [1]) | bioavailability (in vivo [2]) | clearance (in vivo [3]) | half-life (in vivo [4]) |
| --- | --- | --- | --- | --- |
| Cc1nc2ccccc2n1[C@H]1C[C@H]2CC[C@@H](C1)N2CCC1(c2ccccc2)CCN(C(C(=O)O)c2ccccc2)CC1 (some centres not stated) | 3.5 L/kg | 0% | 117 mL/min/kg | – |
| CNC(=O)C(c1ccc(F)cc1)N1CCC(CCN2[C@@H]3CC[C@H]2C[C@@H](n2c(C)nc4ccccc42)C3)(c2cccc(F)c2)CC1 (some centres not stated) | 16.5 L/kg | 37% | 43 mL/min/kg | 366 min |
